From US10048243B2, “Automatic water quality surveillance apparatus” (priority 2016, dated 2018)

Experiments:
[1] = test system: fish reared within the water tank for fish; type: in vivo; settings: for effect on the fish: in vivo; for damage or injury of the fish caused by the pollution: small amount
Excerpt: This is because the oil keeps floating on a water surface thereof.
In this context, the present inventor has confirmed according to tests that the conventional automatic water quality surveillance apparatus with fish cannot sense the oil and/or the mold odor substances based on abnormal behavior of the fish.

cyprinodonts = test system: cyprinodonts; design: species or system Oryzias latipes; settings: in vivo
Excerpt: Referring to FIG. 10, it is clear that the cyprinodonts 4e take unique action based on the kind of toxic substances.
In order to solve the problems, the present inventor has further devised a method including: putting a plurality (for example, 20) of cyprinodonts 4e into the water tank for fish 4d; photographing the cyprinodonts 4e by means of the CCD video camera 1 in a direction of bird's-eye to output data; and analyzing the data with the image processing device 1b.
In order to solve the problem of photographing one cyprinodont from the side wall, the inventor has performed: changing the side photographing system shown in FIG. 10 to the bird's-eye photographing system shown in FIG. 11; using the more (about 20) cyprinodonts; and developing new algorithm. In this way, the present inventor has solved the problem in recent years.
Furthermore, the present inventor has developed algorithm of issuing an alarm in this state.
When about 2 [ppm] concentration of potassium cyanide is contained in the raw water, the cyprinodonts 4e swim weakly toward a water flow to be carried away, thereby being latched by the capture net 4f.

Compound	effect on the fish [1]	damage or injury of the fish caused by the pollution [1]	organ system of cyprinodonts damaged (cyprinodonts)	unique action taken by cyprinodonts (cyprinodonts)
CC1(C)[C@@H]2CC[C@@]1(C)[C@](C)(O)C2 [2-MIB, 2-methylisoborneol]	hardly affect the fish	neither to be damaged nor to be injured	–	–
COP(=S)(OC)Oc1ccc([N+](=O)[O-])c(C)c1 [Fenitrothion]	–	–	damages nervous systems	madly-rushing action
CC1CCCC2(C)CCCCC12O (stereo not drawn) [geosmin]	hardly affect the fish	neither to be damaged nor to be injured	–	–
